Data: the supplement of paper PMC10307832

Assays:
Test in all cases: relative viability (nuclei count vs DMSO), 5 days (fraction); higher = more cells survive
[1] = compound: CC(C)C[C@@H](C(=O)N[C@H](C(=O)OC1CCCC1)c1ccccc1)[C@H](O)C(=O)NO [Tosedostat] + Nc1nc2[nH]cc(CCc3ccc(C(=O)N[C@@H](CCC(=O)O)C(=O)O)cc3)c2c(=O)[nH]1 [Pemetrexed] (partner 0.2 µM)
In short: (§1)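 Nuclei were stained with Hoechst during a one-step fixation (final 0.05% Triton X-100, 1% formaldehyde, 1 ug/ml Hoechst) carried out 5 days after dosing, then counted on 4× images. The cells, lung cancer lines in 1536-well plates, had been dosed by pin tool the day after seeding with one drug alone or a fixed anchor-drug dose plus five library-drug doses (not always all listed) in √10 steps. Relative viability is the nuclei count in treated wells divided by that in vehicle wells, and each value is the median of duplicate plates.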

[2] = compound: CC1=NN=C(O1)C2=NN=C(C=C2)N3CCC(CC3)OC4=C(C=CC(=C4)F)Cl + COc1cccc2cc(-c3nc([C@H]4CC[C@H](C(=O)O)CC4)n4ncnc(N)c34)[nH]c12 [OSI-027] (partner 0.5 µM)
In short: as §1

[3] = compound: CC1=NN=C(O1)C2=NN=C(C=C2)N3CCC(CC3)OC4=C(C=CC(=C4)F)Cl + Nc1ncn([C@H]2C[C@H](O)[C@@H](CO)O2)c(=O)n1 [Decitabine] (partner 2 µM)
In short: as §1

[4] = compound: CC1=NN=C(O1)C2=NN=C(C=C2)N3CCC(CC3)OC4=C(C=CC(=C4)F)Cl + O=C(c1cc(Cc2n[nH]c(=O)c3ccccc23)ccc1F)N1CCN(C(=O)C2CC2)CC1 [Olaparib] (partner 8 µM)
In short: as §1

Cell Line | relative viability ([1]; first compound 0.02 µM) | relative viability ([1]; first compound 0.06325 µM) | relative viability ([1]; first compound 0.2 µM) | relative viability ([1]; first compound 0.6325 µM) | relative viability ([1]; first compound 2 µM) | relative viability ([2]; first compound 0.253 µM) | relative viability ([2]; first compound 0.8 µM) | relative viability ([2]; first compound 2.53 µM) | relative viability ([2]; first compound 8 µM) | relative viability ([3]; first compound 0.253 µM) | relative viability ([3]; first compound 0.8 µM) | relative viability ([3]; first compound 2.53 µM) | relative viability ([3]; first compound 8 µM) | relative viability ([4]; first compound 0.253 µM) | relative viability ([4]; first compound 0.8 µM) | relative viability ([4]; first compound 2.53 µM) | relative viability ([4]; first compound 8 µM)
HCC-78 | 0.923 | 1.02 | 0.838 | 0.895 | 0.922 | 0.414 | 0.369 | 0.348 | 0.335 | 0.491 | 0.43 | 0.397 | 0.509 | 0.454 | 0.384 | 0.387 | 0.456
NCI-H1666 | 0.888 | 0.831 | 0.88 | 0.991 | 0.963 | 0.539 | 0.697 | 0.801 | 0.797 | 0.561 | 0.674 | 0.69 | 0.534 | 0.692 | 0.728 | 0.655 | 0.664
HCC-15 | 0.234 | 0.221 | 0.213 | 0.243 | 0.249 | 0.605 | 0.573 | 0.532 | 0.522 | 0.497 | 0.5 | 0.493 | 0.457 | 0.354 | 0.305 | 0.348 | 0.337
EKVX | 0.462 | 0.427 | 0.547 | 0.462 | 0.477 | 0.481 | 0.465 | 0.362 | 0.423 | 0.292 | 0.261 | 0.309 | 0.225 | 0.402 | 0.381 | 0.464 | 0.494
NCI-H2347 | 0.443 | 0.425 | 0.434 | 0.421 | 0.374 |  | 0.366 | 0.463 | 0.354 | 0.544 | 0.593 | 0.568 | 0.471 | 0.49 | 0.49 | 0.552 | 0.44
LK-2 | 0.244 | 0.249 | 0.348 | 0.274 | 0.374 | 0.265 | 0.23 | 0.311 | 0.234 | 0.401 | 0.279 | 0.325 | 0.315 | 0.757 | 0.58 | 0.655 | 0.672
NCI-H1651 | 0.586 | 0.637 | 0.555 | 0.711 | 0.623 | 0.73 | 0.597 | 0.717 | 0.697 | 0.486 | 0.46 | 0.451 | 0.391 | 0.165 | 0.162 | 0.17 | 0.162
COR-L23 | 0.2 | 0.214 | 0.202 | 0.194 | 0.172 | 0.654 | 0.558 | 0.586 | 0.389 | 0.383 | 0.409 | 0.396 | 0.409 | 0.259 | 0.271 | 0.345 | 0.299
ABC-1 |  |  |  |  |  | 0.244 | 0.326 | 0.411 | 0.47 | 0.49 | 0.539 | 0.406 | 0.423 | 0.664 | 0.506 | 0.488 | 0.638
SW 900 | 0.513 | 0.527 | 0.527 | 0.474 | 0.486 |  |  | 0.637 | 0.41 |  | 0.467 | 0.395 | 0.426 |  | 0.801 | 0.776 | 0.802
